Laboratory results from ChEMBL document CHEMBL1135003, “Synthesis of aglycon analogues of sarmentosin and their bioactivity of lymphocyte proliferation” (2002).

Experiments:
Format in all cases: functional
[1] = In vitro effect on the proliferation of B lymphocytes of mouse splenocytes at 2.0 umol/L to show the antibody formation by [3H]thymidine incorporation
[2] = In vitro effect on the proliferation of T lymphocytes of mouse splenocytes at 0.2 umol/L to show the cell-mediated immunity by [3H]thymidine incorporation
[3] = In vitro effect on the proliferation of B lymphocytes of mouse splenocytes at 20 umol/L to show the antibody formation by [3H]thymidine incorporation
[4] = In vitro effect on the proliferation of T lymphocytes of mouse splenocytes at 2 umol/L to show the cell-mediated immunity by [3H]thymidine incorporation
[5] = In vitro effect on the proliferation of T lymphocytes of mouse splenocytes at 20 umol/L to show the cell-mediated immunity by [3H]thymidine incorporation
[6] = In vitro effect on the proliferation of B lymphocytes of mouse splenocytes at 0.2 umol/L to show the antibody formation by [3H]thymidine incorporation

SMILES | Activity [1] | Activity [2] | Activity [3] | Activity [4] | Activity [5] | Activity [6]
N#C/C(=C\COC(=O)c1ccccc1)CO | 73% | 97% | 67% | 68% | 23% | 137%
N#C/C(=C\COC(=O)/C=C/c1ccccc1)CO | 69% | 80% | 20% | 62% | 38% | 96%
N#C/C(=C\COC(=O)c1ccc(F)cc1Cl)CO | 151% | 123% | 113% | 98% | 29% | 151%
COc1ccc(COC/C=C(\C#N)CO)cc1 | 71% | 93% | 38% | 54% | 37% | 169%
N#C/C(=C\COC(=O)c1ccc(Cl)cc1Cl)CO | 69% | 119% | 73% | 94% | 131% | 68%
N#C/C(=C\COc1ccccc1)CO | 48% | 100% | 45% | 113% | 131% | 51%
COc1ccc(OC/C=C(\C#N)CO)cc1 | 77% | 101% | 79% | 114% | 80% | 81%
COc1ccc(C(=O)OC/C=C(\C#N)CO)cc1 | 86% | 100% | 31% | 63% | 25% | 109%
